Read-outs that look alike come from different tables or passages of the source.
How the values were obtained:
HIV-1 (IIIB) = test: Inhibition of HIV-1 (IIIB)-induced cytopathicity (giant cell formation) in CEM cells; assay type: cell-based
Experimental: (§1) A variety of glycopeptide antibiotic derivatives of vancomycin, eremomycin and teicoplanin including their aglycon derivatives were evaluated for their inhibitory activity against HIV-1 (IIIB) and HIV-2(ROD) in CEM cell cultures.

HIV-2(ROD) = test: Inhibition of HIV-2 (ROD)-induced cytopathicity (giant cell formation) in CEM cells; assay type: cell-based; details: read-out: EC50 HIV-2 (concentration required to inhibit HIV-induced giant cell formation by 50%); HIV-2, CEM cell cultures
Experimental: as §1

murine leukemia L1210 = test: Cytostatic activity assay, L1210 cells; assay type: cell-based; details: read-out: IC50 L1210 (compound concentration required to inhibit tumor cell proliferation by 50%)
[1] = tested on: human lymphocyte Molt4/clone 8; test: Cytostatic activity assay, Molt4/clone 8 cells; assay type: cell-based; details: read-out: IC50 Molt4/C8 (compound concentration required to inhibit tumor cell proliferation by 50%)
human lymphocyte CEM = test: Cytostatic activity assay, CEM cells; assay type: cell-based; details: read-out: IC50 CEM (compound concentration required to inhibit tumor cell proliferation by 50%)
VZV (wild-type strains) = test: Anti-VZV assay (wild-type strains): virus-induced cytopathicity in HEL cell cultures; assay type: cell-based, varicella-zoster virus; details: HEL cell cultures
HEL cells [2] = details: anti-VZV table
HEL cells [3] = details: read-out: CC50 (HEL); HEL cells; anti-VZV table
[4] = read-out: EC50 HIV-1 (concentration required to inhibit HIV-induced giant cell formation by 50%), HIV-1, CEM cell cultures
[5] = VZV strain OKA, read-out: EC50 VZV (OKA)

Row | SMILES | EC50 (HIV-1 (IIIB); [4]) [µM] | EC50 (HIV-2(ROD)) [µM] | IC50 (murine leukemia L1210) [µM] | IC50 [1] [µM] | IC50 (human lymphocyte CEM) [µM] | EC50 (VZV (wild-type strains); [5]) [µM] | MTC (HEL) (HEL cells [2]) | CC50 (HEL cells [3]) [µM] | EC50 (HIV-1 (IIIB); HIV-1 (IIIB), CEM cell cultures, read-out: EC50 against HIV-1) [µM] | EC50 (VZV (wild-type strains); VZV strain YS, read-out: EC50 VZV (YS)) [µM]
1 | CCCCCCCCCC[N+](C)(C)CCCNCc1c(O)cc2c(c1O)-c1cc(ccc1O)C1NC(=O)C3NC(=O)C4NC(=O)C(Cc5ccc(cc5)Oc5cc3cc(c5OC3OC(C(=O)NCCCN(C)C)C(O)C(O)C3N)Oc3ccc(cc3Cl)C(O)C(NC1=O)C(=O)NC2C(=O)NCCCN(C)C)NC(=O)C(NC)c1ccc(O)c(c1)Oc1cc(O)c(Cl)c4c1 (stereo not shown) [Compound 14] | 3.5 ± 0.7 | ≥ 20 | 27 ± 0.3 | 22 ± 4.7 | 92 ± 5 | – | – | – | – | –
2 | CCCCCCCCCC(=O)N1CCN(Cc2c(O)cc3c(c2O)-c2cc(ccc2O)C2NC(=O)C4NC(=O)C5NC(=O)C(Cc6ccc(c(Cl)c6)Oc6cc4cc(c6O)Oc4ccc(cc4Cl)C(O)C(NC2=O)C(=O)NC3C(=O)O)NC(=O)C(N)c2ccc(O)c(c2)Oc2cc(O)cc5c2)CC1 (stereo not shown) [Compound 141] | – | – | – | – | – | 7.1 | 50 µM | > 50 | – | –
3 | C[C@@H](NC(=O)[C@@H](C)NC(=O)CCCCCNC(=O)C1NC(=O)C2NC(=O)C(NC(=O)C3NC(=O)C4NC(=O)C(Cc5ccc(c(Cl)c5)Oc5cc3cc(c5O)Oc3ccc(cc3Cl)C2O)NC(=O)C(NC(=O)OC(C)(C)C)c2ccc(O)c(c2)Oc2cc(O)cc4c2)c2ccc(O)c(c2)-c2c(O)cc(O)cc21)C(=O)O (stereo partly shown) [Compound 44] | 12.5 ± 3.5 | 25 ± 7 | > 500 | > 500 | > 500 | – | – | – | – | –
4 | CNCc1c(O)cc2c(c1O)-c1cc(ccc1O)C1NC(=O)C3NC(=O)C4NC(=O)C(Cc5ccc(c(Cl)c5)Oc5cc3cc(c5O)Oc3ccc(cc3Cl)C(O)C(NC1=O)C(=O)NC2C(=O)O)NC(=O)C(NC(=O)OC(C)(C)C)c1ccc(O)c(c1)Oc1cc(O)cc4c1 (stereo not shown) [Compound 140] | – | – | – | – | – | 13 | ≧50-200 μM | > 50 | – | –
5 | O=C1NC2C(=O)NC3C(=O)NC4C(=O)NC(C(=O)NC(C(=O)O)c5cc(O)cc(O)c5-c5cc4ccc5O)C(O)c4ccc(c(Cl)c4)Oc4cc3cc(c4O)Oc3ccc(cc3Cl)CC1NC(=O)C(NC(=O)C13CC4CC(CC(C4)C1)C3)c1ccc(O)c(c1)Oc1cc(O)cc2c1 (stereo not shown) [Compound 164] | 10 | 4 | – | – | – | – | – | – | – | –
6 | CCCCCCCCCC[N+](C)(C)CCCNC(=O)C1NC(=O)C2NC(=O)C(NC(=O)C3NC(=O)C(CC(N)=O)NC(=O)C(NC(=O)C(CC(C)C)NC)C(O)c4ccc(c(Cl)c4)Oc4cc3cc(c4OC3OC(CO)C(O)C(O)C3OC3CC(C)(N)C(O)C(C)O3)Oc3ccc(cc3Cl)C2O)c2ccc(O)c(c2)-c2c(O)cc(O)cc21 (stereo not shown) [Compound 2] | 5.5 ± 0.7 | > 50 | 60 ± 8 | 53 ± 1 | 172 ± 15 | – | – | – | 12 | –
7 | NC1C(=O)NC2Cc3ccc(c(Cl)c3)Oc3cc4cc(c3O)Oc3ccc(cc3Cl)C(O)C3NC(=O)C(NC(=O)C4NC(=O)C(NC2=O)c2cc(O)cc(c2)Oc2cc1ccc2O)c1ccc(O)c(c1)-c1c(cc(O)c(CN2CCN(Cc4ccc(Cl)cc4)CC2)c1O)C(C(=O)O)NC3=O (stereo not shown) [Compound 119] | – | – | – | – | – | 5 | 20 to 400 µM | > 50 | – | –
8 | NC1C(=O)NC2Cc3ccc(c(Cl)c3)Oc3cc4cc(c3O)Oc3ccc(cc3Cl)C(O)C3NC(=O)C(NC(=O)C4NC(=O)C(NC2=O)c2cc(O)cc(c2)Oc2cc1ccc2O)c1ccc(O)c(c1)-c1c(O)cc(O)cc1C(C(=O)N1CCN(N=Cc2ccc(Cl)cc2)CC1)NC3=O (stereo not shown) [Compound 113] | – | – | – | – | – | 0.68 | ≧5-20 μM | > 50 | – | 0.42
9 | CCCCc1ccc(CNC2C(Oc3c4cc5cc3Oc3ccc(cc3Cl)C(O)C3NC(=O)C(NC(=O)C5NC(=O)C5NC(=O)C(Cc6ccc(cc6)O4)NC(=O)C(NC)c4ccc(O)c(c4)Oc4cc(O)c(Cl)c5c4)c4ccc(O)c(c4)-c4c(cc(O)c(CN5CCN(Cc6ccc(-c7ccccc7)cc6)CC5)c4O)C(C(=O)O)NC3=O)OC(C(=O)O)C(O)C2O)cc1 (stereo not shown) [Compound 93] | 3.5 | 22 | – | – | 81 | – | – | – | – | –
10 | CCCCCCCCCC[N+](C)(C)CCCNCc1c(O)cc2c(c1O)-c1cc(ccc1O)C1NC(=O)C3NC(=O)C4NC(=O)C(Cc5ccc(cc5)Oc5cc3cc(c5OC3OC(C(=O)O)C(O)C(O)C3N)Oc3ccc(cc3Cl)C(O)C(NC1=O)C(=O)NC2C(=O)O)NC(=O)C(NC)c1ccc(O)c(c1)Oc1cc(O)c(Cl)c4c1 (stereo not shown) [Compound 95] | 3.5 | ≥ 20 | – | – | 92 | – | – | – | – | –
